ChEMBL document CHEMBL5356997, “Maydistacins A-G, Terpestacin-type Sesterterpenoids with Anti-inflammatory Activity from the Phytopathogenic Fungus Bipolaris maydis” (J Nat Prod, 2024)

Experiments:
[1] = Cytotoxicity against mouse RAW264.7 cells assessed as cell survival at 50 uM by MTT assay relative to control; type: toxicity, cell-based; details: read-out: Activity
RAW264.7 [2] = assay: Antiinflammatory activity against LPS-stimulated mouse RAW264.7 cells assessed as inhibition of NO production preincubated with compound for 2 hrs followed by LPS stimulation and measured after 12 hrs by Griess reagent based microplate reader analysis; type: functional, cell-based
RAW264.7 [3] = assay: Antiinflammatory activity against LPS-stimulated mouse RAW264.7 cells assessed as inhibition of NO production at 50 uM preincubated with compound for 2 hrs followed by LPS stimulation and measured after 12 hrs by Griess reagent based microplate reader analysis relative to control; type: functional; details: time 14 hrs

| Compound | viability at 50 µM [1] [%] | IC50 (RAW264.7 [2]) [µM] | inhibition at 50 µM (RAW264.7 [3]) [%] |
| --- | --- | --- | --- |
| C/C1=C\C[C@]2(C)C(=O)C(O)=C([C@H](C)CO)[C@H]2C/C=C(\C)C(=O)CC/C(C)=C/CC1 | > 90 | 19 | – |
| C/C1=C\C[C@]2(C)C(=O)C(O)=C([C@H](C)CO)[C@H]2C[C@H]2O[C@]2(C)[C@@H](O)CC/C(C)=C/CC1 | > 90 | – | < 40 |
| CC(=O)O[C@H]1CC/C(C)=C/CC/C(C)=C/C[C@]2(C)C(=O)C(O)=C([C@H](C)CO)[C@H]2C/C=C/1C | > 90 | – | < 40 |
| C/C1=C\C[C@]2(C)C(=O)C(O)=C([C@H](C)CO)[C@H]2C/C=C(\C)[C@@H]2CC[C@](C)(/C=C/C1)O2 | > 90 | – | < 40 |
| CC(=O)OC[C@@H](C)C1=C(O)C(=O)[C@@]2(C)C/C=C(\C)C/C=C/[C@](C)(O)CC[C@@H](O)/C(C)=C/C[C@H]12 | > 90 | – | < 40 |
| CC(=O)OC[C@@H](C)C1=C(O)C(=O)[C@@]2(C)C/C=C(\C)CC/C=C(\C)CC[C@H](O)[C@@]3(C)O[C@@H]3C[C@H]12 | > 90 | – | < 40 |
| CC(=O)OC[C@@H](C)C1=C(O)C(=O)[C@@]2(C)C/C=C(\C)CC[C@@H]3O[C@@]3(C)CC[C@H](O)/C(C)=C/C[C@H]12 | > 90 | – | < 40 |
| C[C@@H]1C[C@H]2[C@@H]3CCC4=CC(=O)C=C[C@]4(C)[C@@]3(F)[C@@H](O)C[C@]2(C)[C@@]1(O)C(=O)CO [DEXAMETHASONE] | – | 6.7 | – |
| CC(=O)OC[C@@H](C)C1=C(O)C(=O)[C@@]2(C)C/C=C(\C)CC/C=C(\C)CC[C@H](O)/C(C)=C/C[C@H]12 [FUSAPROLIFERIN] | > 90 | – | < 40 |
| C/C1=C\C[C@]2(C)C(=O)C(O)=C([C@H](C)CO)[C@H]2C/C=C(\C)[C@@H](O)CC/C(C)=C/CC1 [TERPESTACIN] | > 90 | – | < 40 |
